Assay results from paper PMC10940605, “Design, synthesis and in vitro anticancer activity of some new lomefloxacin derivatives” (Scientific Reports, 2024).

Tests used:
Assay in all cases: NCI-60 SRB screen
Assay type in all cases: cell-based
T-47D = conditions: Homo sapiens, T47D, 10^–5 Molar, read-out: Percent growth inhibition
Method in brief: (§1)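 Compound added at 10^−5 M final, 48 h at 37 °C. Fixed with cold TCA, stained with 0.4% SRB, read at […].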

OVCAR-5 = conditions: Homo sapiens; OVCAR-5, 10^–5 Molar; read-out: Percent growth inhibition
Method in brief: as §1

SW-620 = conditions: Homo sapiens; SW-620, 10^–5 Molar; read-out: Percent growth inhibition
Method in brief: (§2)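 DMSO stocks diluted in medium with gentamycin; 10^−5 M final; 48 h, 37 °C, 5% CO2, 100% humidity; TCA fix 60 min 4 °C; SRB 10 min RT; OD […]; % growth inhibition vs Tz and C.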

HCC-2998 = conditions: Homo sapiens; HCC-2998, 10^–5 Molar; read-out: Percent growth inhibition
Method in brief: as §2

MDA-MB-435 = conditions: Homo sapiens; MDA-MB-435, 10^–5 Molar; read-out: Percent growth inhibition
Method in brief: as §1

HOP-92 = conditions: Homo sapiens; HOP-92, 10^–5 Molar; read-out: Percent growth inhibition
Method in brief: as §2

SF-539 = conditions: Homo sapiens; SF-539, 10^–5 Molar; read-out: Percent growth inhibition
Method in brief: as §2

NCI-H23 = conditions: Homo sapiens; NCI-H23, 10^–5 Molar; read-out: Percent growth inhibition
Method in brief: as §2

MALME-3M = conditions: Homo sapiens, 10^–5 Molar, read-out: Percent growth inhibition
Method in brief: as §1

BT-549 = conditions: Homo sapiens; BT-549, 10^–5 Molar; read-out: Percent growth inhibition
Method in brief: as §2

NCI-H226 = conditions: Homo sapiens; NCI-H226, 10^–5 Molar; read-out: Percent growth inhibition
Method in brief: as §1

melanoma SK-MEL-5 = conditions: Homo sapiens; SK-MEL-5, 10^–5 Molar; read-out: Percent growth inhibition
Method in brief: as §1

CCRF-CEM = conditions: Homo sapiens, 10^–5 Molar, read-out: Percent growth inhibition
Method in brief: as §2

HCT-116 = conditions: Homo sapiens; HCT-116, 10^–5 Molar; read-out: Percent growth inhibition
Method in brief: as §2

LOX IMVI = conditions: Homo sapiens, 10^–5 Molar, read-out: Percent growth inhibition
Method in brief: as §1

K-562 = conditions: Homo sapiens, K562; K-562, 10^–5 Molar; read-out: Percent growth inhibition
Method in brief: as §1

MDA-MB-231/ATCC = conditions: Homo sapiens, 10^–5 Molar, read-out: Percent growth inhibition
Method in brief: as §1

KM12 = conditions: Homo sapiens; KM12, 10^–5 Molar; read-out: Percent growth inhibition
Method in brief: as §1

NCI-H522 = conditions: Homo sapiens; NCI-H522, 10^–5 Molar; read-out: Percent growth inhibition
Method in brief: as §2

NCI/ADR-RES = conditions: Homo sapiens, 10^–5 Molar, read-out: Percent growth inhibition
Method in brief: as §1

OVCAR-4 = conditions: Homo sapiens; OVCAR-4, 10^–5 Molar; read-out: Percent growth inhibition
Method in brief: as §2

SN12C = conditions: Homo sapiens, 10^–5 Molar, read-out: Percent growth inhibition
Method in brief: as §1

NCI-H322M = conditions: Homo sapiens, 10^–5 Molar, read-out: Percent growth inhibition
Method in brief: as §2

U251 = conditions: Homo sapiens, U-251; U251, 10^–5 Molar; read-out: Percent growth inhibition
Method in brief: as §2

A498 = conditions: Homo sapiens; A498, 10^–5 Molar; read-out: Percent growth inhibition
Method in brief: as §1

Row | Structure (SMILES) | inhibition at 10 µM (T-47D) [%] | inhibition at 10 µM (OVCAR-5) [%] | inhibition at 10 µM (MDA-MB-435) [%] | inhibition at 10 µM (HOP-92) [%] | inhibition at 10 µM (SF-539) [%] | inhibition at 10 µM (NCI-H23) [%] | inhibition at 10 µM (MALME-3M) [%] | inhibition at 10 µM (NCI-H226) [%] | inhibition at 10 µM (melanoma SK-MEL-5) [%] | inhibition at 10 µM (HCT-116) [%] | inhibition at 10 µM (LOX IMVI) [%] | inhibition at 10 µM (K-562) [%] | inhibition at 10 µM (MDA-MB-231/ATCC) [%] | inhibition at 10 µM (KM12) [%] | inhibition at 10 µM (NCI-H522) [%] | inhibition at 10 µM (NCI/ADR-RES) [%] | inhibition at 10 µM (OVCAR-4) [%] | inhibition at 10 µM (SN12C) [%] | inhibition at 10 µM (NCI-H322M) [%] | inhibition at 10 µM (A498) [%] | other results
1 | CCn1cc(C(=O)NN=Cc2cccs2)c(=O)c2cc(F)c(N3CCNC(C)C3)c(F)c21 (stereo not drawn) [Compound 3e, 1-Ethyl-6,8-difluoro-7-(3-methylpiperazin-1-yl)-4-oxo-N'-(thiophen-2-ylmethylene)-1,4-dihydroquinoline-3-carbohydrazide] | 22.2 | 32.8 | 7.77 | 46.2 | 15.8 | 10.2 | 137 | 24 | 30.2 | 5.52 | 184 | 139 | 59 | 16.5 | 28.9 | 32.1 | 23.8 | 30 | 15.9 | – | inhibition at 10 µM (SW-620): 117%; inhibition at 10 µM (HCC-2998): 71.4%; inhibition at 10 µM (BT-549): 38.4%; inhibition at 10 µM (CCRF-CEM): 32.8%; inhibition at 10 µM (U251): 46.7%
2 | CCn1cc(C(=O)NN=Cc2ccc(Br)cc2)c(=O)c2cc(F)c(N3CCNC(C)C3)c(F)c21 (stereo not drawn) [Compound 3c, N'-(4-Bromobenzylidene)-1-ethyl-6,8-difluoro-7-(3-methylpiperazin-1-yl)-4-oxo-1,4-dihydroquinoline-3-carbohydrazide] | 36 | 5.97 | 83.3 | 38.8 | 28.6 | 9.03 | 41.3 | 2.69 | 17.6 | 32.3 | 178 | 113 | 45.2 | 52.1 | 21.5 | 16.7 | 18.3 | 47.8 | 14.2 | 1.99 | inhibition at 10 µM (SW-620): 174%; inhibition at 10 µM (HCC-2998): 74.1%; inhibition at 10 µM (BT-549): 8.32%; inhibition at 10 µM (CCRF-CEM): 70.3%; inhibition at 10 µM (U251): 98.6%
3 | CCn1cc(C(=O)O)c(=O)c2cc(F)c(N3CCN(CC(=O)Nc4ccccc4)C(C)C3)c(F)c21 (stereo not drawn) [Compound 5a, 1-Ethyl-6,8-difluoro-7-(3-methyl-4-(2-oxo-2-(phenylamino)ethyl)piperazin-1-yl)-4-oxo-1,4-dihydroquinoline-3-carboxylic acid] | 4.6 | 1.71 | 2.9 | 2.95 | 0.89 | 8.68 | 2.09 | – | 0.76 | 0.13 | 11.5 | 12.9 | 12.9 | 0.07 | 7.5 | 3.34 | 17.6 | – | 14.3 | 26.6 | inhibition at 10 µM (HCC-2998): 0.15%; inhibition at 10 µM (CCRF-CEM): 3.25%
4 | CCn1cc(C(=O)O)c(=O)c2cc(F)c(N3CCN(C(=O)c4ccc(Cl)cc4)C(C)C3)c(F)c21 (stereo not drawn) [Compound 7c, 7-(4-(4-Chlorobenzoyl)-3-methylpiperazin-1-yl)-1-ethyl-6,8-difluoro-4-oxo-1,4-dihydroquinoline-3-carboxylic acid] | 5.3 | 2.81 | 6.54 | – | 5.06 | – | 1.6 | 7.33 | 2.21 | 0.17 | 4 | 1.62 | 14.3 | 0.72 | 9.51 | 13.8 | 18.9 | 3.15 | 7.81 | 19.2 | –
5 | CCn1cc(C(=O)O)c(=O)c2cc(F)c(N3CCN(CC(=O)Nc4ccc(Cl)cc4)C(C)C3)c(F)c21 (stereo not drawn) [Compound 5b, 7-(4-(2-((4-Chlorophenyl)amino)-2-oxoethyl)-3-methylpiperazin-1-yl)-1-ethyl-6,8-difluoro-4-oxo-1,4-dihydroquinoline-3-carboxylic acid] | 11.2 | – | 5.85 | 9.45 | 4.4 | 7.93 | 4.32 | 3.83 | 16.1 | 0.67 | 9.13 | 14.2 | 15.7 | 3.94 | 8.89 | 8.06 | 22.2 | 2.23 | 13.8 | 27.1 | inhibition at 10 µM (SW-620): 1.08%; inhibition at 10 µM (BT-549): 0.23%; inhibition at 10 µM (CCRF-CEM): 2.48%
6 | CCn1cc(C(=O)O)c(=O)c2cc(F)c(N3CCN(C(=O)c4ccccc4)C(C)C3)c(F)c21 (stereo not drawn) [Compound 7a, 7-(4-Benzoyl-3-methylpiperazin-1-yl)-1-ethyl-6,8-difluoro-4-oxo-1,4-dihydroquinoline-3-carboxylic acid] | 18.1 | 5.65 | 4.07 | 31.8 | 10.7 | 4.39 | 4.96 | 2.44 | 6.55 | – | 19.1 | 7.84 | 16.6 | 1.89 | 9.08 | 20.4 | 20.5 | – | 14.4 | 19.1 | inhibition at 10 µM (HCC-2998): 5.26%; inhibition at 10 µM (BT-549): 3.33%; inhibition at 10 µM (CCRF-CEM): 2.26%; inhibition at 10 µM (U251): 2.73%
7 | CCn1cc(C(=O)O)c(=O)c2cc(F)c(N3CCN(C(=O)c4ccc([N+](=O)[O-])cc4)C(C)C3)c(F)c21 (stereo not drawn) [Compound 7d, 1-Ethyl-6,8-difluoro-7-(3-methyl-4-(4-nitrobenzoyl)piperazin-1-yl)-4-oxo-1,4-dihydroquinoline-3-carboxylic acid] | 4.73 | 9.27 | – | 0.34 | 8.54 | – | 0.88 | 3.95 | 0.86 | 2.1 | 9.8 | 2.06 | 8.63 | 1.24 | 0.62 | 3.34 | 8.82 | 0.88 | 12.7 | 8.25 | –
8 | CCn1cc(C(=O)O)c(=O)c2cc(F)c(N3CCN(C(=O)c4ccc(Br)cc4)C(C)C3)c(F)c21 (stereo not drawn) [Compound 7b, 7-(4-(4-Bromobenzoyl)-3-methylpiperazin-1-yl)-1-ethyl-6,8-difluoro-4-oxo-1,4-dihydroquinoline-3-carboxylic acid] | 6.95 | 2.96 | 3.15 | – | 9.67 | – | – | 1.95 | 1.22 | – | – | 0.24 | 13.3 | 3.51 | 10 | 9.07 | 16.9 | 1.45 | 5.64 | 13.8 | inhibition at 10 µM (SW-620): 0%
